Reference: patent publication US20260098008A1, “COVALENT, CHEMOGENETIC ACTIVATORS FOR K2P POTASSIUM CHANNELS AND USES THEREOF” (THE REGENTS OF THE UNIVERSITY OF CALIFORNIA, priority 2022, published 2026)
Changes are numbered by the printed parent chain. Values joined by “and” are separate entries in the source; they are usually repeats but may differ in a detail not shown here. Equal values may be shown once.

Columns and labels:
K2P10.1 (TREK-2)^CG* = target: T1, K2P10.1 (TREK-2)^CG* (Mus musculus, UniProt Q8BUW1, S153C); experiment: TEVC in Xenopus oocytes; format: cell-based; settings: Fold-activation at 20 uM in oocytes
T1 construct: Modified TREK-2 from Mus musculus; expressed in transfected cells; host or cells: Xenopus laevis oocytes injected with mRNA
T1 sequence (Q8BUW1 with tags, fused parts or gaps S153C): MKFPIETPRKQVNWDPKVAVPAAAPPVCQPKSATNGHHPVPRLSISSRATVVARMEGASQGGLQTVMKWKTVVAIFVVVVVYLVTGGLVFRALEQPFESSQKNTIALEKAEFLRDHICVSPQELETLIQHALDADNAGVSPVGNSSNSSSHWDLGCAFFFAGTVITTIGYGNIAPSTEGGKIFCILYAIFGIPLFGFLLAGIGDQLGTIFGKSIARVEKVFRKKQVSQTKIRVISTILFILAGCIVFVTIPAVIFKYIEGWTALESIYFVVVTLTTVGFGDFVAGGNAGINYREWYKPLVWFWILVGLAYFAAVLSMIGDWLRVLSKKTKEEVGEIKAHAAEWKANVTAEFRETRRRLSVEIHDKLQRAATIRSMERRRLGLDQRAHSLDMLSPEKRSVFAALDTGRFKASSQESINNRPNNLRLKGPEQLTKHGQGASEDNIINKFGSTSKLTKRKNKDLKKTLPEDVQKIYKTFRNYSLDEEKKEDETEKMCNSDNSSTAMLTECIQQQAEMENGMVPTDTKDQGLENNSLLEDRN
Text: (§1) Mouse K2P2.1 (TREK-1) (Genbank accession number: NP_034737.2), mouse K2P10.1 (TREK-2) (NM_001316665.1), mouse K2P4.1 (TRAAK) (NM_008431.3), human K2P4.1 (TRAAK) (NM_033310.2) and mouse K2P18.1(TRESK) (NM_207261.3) were used for this study. Point mutations were introduced by site-directed mutagenesis using custom primers and confirmed by sequencing before use. For studies using Xenopus oocytes, K2P channels were subcloned into a previously reported pGEMHE/pMO vector (46). For expression in HEK293 cells, mouse K2P2.1 (TREK-1) and mutants were expressed from a previously described pIRES2-EGFP vector in HEK293 cells (46,47). K2P2.1 (TREK-1) tandems were constructed by connecting the open reading frames for the individual subunits with a linker encoding the […] (SEQ ID NO: 19) sequence. Tandems used for HEK293 cells included an N-terminal HA tag ([…] (SEQ ID NO: 20)) on the first subunit.
(§2) Xenopus laevis oocytes were harvested according to UCSF IACUC Protocol AN129690 and digested using collagenase (Worthington Biochemical Corporation, #LS004183, 0.8-1.0 mg/mL) in Ca^21-free ND96 (96 mM NaCl, 2 mM KCl, 3.8 mM MgCl2, 5 mM HEPES pH 7.4) immediately post-harvest, as previously reported (31,33). Oocytes were maintained at 18° C. in ND96 (96 mM NaCl, 2 mM KCl, 1.8 mM CaCl2, 2 mM MgCl2, 5 mM HEPES pH 7.4) supplemented with antibiotics (100 units mL^−1 penicillin, 100 μg mL^−1 streptomycin, 50 μg mL^−1 gentimycin) and used for experiments within one week of harvest.
(§3) Defolliculated stage V-VI oocytes were microinjected with 0.5-36 ng mRNA and currents were recorded within 16-48 h hours of injection.
(§4) For recordings, oocytes were impaled with borosilicate recording microelectrodes (0.4-2.0 MΩ resistance) backfilled with 3 M KCl and were subjected to constant perfusion of ND96 at a rate of 3 ml min^−1. Recording solutions containing K2P activators were prepared immediately prior to use from DMSO stocks (20-100 mM), with final DMSO concentrations of 0.1%. Currents were evoked from a −80 mV holding potential followed by a 300 ms ramp from −150 mV to +50 mV. Data were recorded using a GeneClamp 500B amplifier (MDS Analytical Technologies) controlled by pCLAMP8 software (Molecular Devices), and digitized at 1 kHz using Digidata 1332 Å digitizer (MDS Analytical Technologies). For each recording, control solution (ND96) was perfused over a single oocyte until current was stable before switching to solutions containing the test compounds at various concentrations. Representative traces and dose response plots were generated in GraphPad Prism 9.

[1] = target: T2, TREK-1^CG* (K2P2.1 (TREK-1) S131C) (Mus musculus, UniProt P97438, S146C); experiment: TEVC in Xenopus oocytes; format: cell-based; settings: Fold-activation at 20 uM in oocytes
T2 construct: expressed in transfected cells; host or cells: Xenopus laevis oocytes injected with mRNA
T2 sequence (P97438 1-411 isoform P97438-2 S131C): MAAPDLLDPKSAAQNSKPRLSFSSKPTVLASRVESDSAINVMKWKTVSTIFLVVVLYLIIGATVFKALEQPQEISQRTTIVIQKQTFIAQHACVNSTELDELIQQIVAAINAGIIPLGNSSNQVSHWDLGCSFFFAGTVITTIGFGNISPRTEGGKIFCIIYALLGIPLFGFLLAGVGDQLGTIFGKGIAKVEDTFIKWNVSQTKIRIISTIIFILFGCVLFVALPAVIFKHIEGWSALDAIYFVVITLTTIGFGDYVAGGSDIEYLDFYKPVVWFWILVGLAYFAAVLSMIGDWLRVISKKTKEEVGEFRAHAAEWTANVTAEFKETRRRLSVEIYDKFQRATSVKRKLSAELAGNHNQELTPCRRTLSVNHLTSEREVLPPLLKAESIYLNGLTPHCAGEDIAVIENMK
Text: as §1, §2, §3, §4

TREK-2 = target: T3, TREK-2 (Mus musculus, UniProt Q8BUW1); experiment: TEVC in Xenopus oocytes; format: cell-based; settings: Fold-activation at 20 uM in oocytes
T3 construct: expressed in transfected cells; host or cells: Xenopus laevis oocytes injected with mRNA
T3 sequence (Q8BUW1 with tags, fused parts or gaps): T1 sequence (Q8BUW1 with tags, fused parts or gaps S153C) with C156S
Text: as §1, §2, §3, §4

K2P2.1 (TREK-1) = target: T4, K2P2.1 (TREK-1) (Mus musculus, UniProt P97438); experiment: Two-electrode voltage clamp (TEVC) in Xenopus oocytes; format: cell-based; settings: for TREK-1 activity class: Fold-activation at 20 uM in oocytes
T4 construct: expressed in transfected cells; host or cells: Xenopus laevis oocytes injected with mRNA (pGEMHE/pMO vector)
T4 sequence (P97438 1-411 isoform P97438-2): T2 sequence (P97438 1-411 isoform P97438-2 S131C) with C131S
Text: as §1, §2, §3, §4

K2P2.1 (TREK-1) S131A = target: T5, K2P2.1 (TREK-1) S131A (Mus musculus, UniProt P97438, S146A); experiment: TEVC in Xenopus oocytes; format: cell-based; settings: 20 μM, 0 mV
T5 construct: expressed in transfected cells; host or cells: Xenopus laevis oocytes injected with mRNA
T5 sequence (P97438 1-411 isoform P97438-2 S131A): T2 sequence (P97438 1-411 isoform P97438-2 S131C) with C131A
Text: as §1, §2, §3, §4

K2P4.1 (TRAAK) = target: T6, K2P4.1 (TRAAK) (Homo sapiens, UniProt Q9NYG8); settings: previous studies; cited from earlier work
T6 sequence (Q9NYG8 1-393): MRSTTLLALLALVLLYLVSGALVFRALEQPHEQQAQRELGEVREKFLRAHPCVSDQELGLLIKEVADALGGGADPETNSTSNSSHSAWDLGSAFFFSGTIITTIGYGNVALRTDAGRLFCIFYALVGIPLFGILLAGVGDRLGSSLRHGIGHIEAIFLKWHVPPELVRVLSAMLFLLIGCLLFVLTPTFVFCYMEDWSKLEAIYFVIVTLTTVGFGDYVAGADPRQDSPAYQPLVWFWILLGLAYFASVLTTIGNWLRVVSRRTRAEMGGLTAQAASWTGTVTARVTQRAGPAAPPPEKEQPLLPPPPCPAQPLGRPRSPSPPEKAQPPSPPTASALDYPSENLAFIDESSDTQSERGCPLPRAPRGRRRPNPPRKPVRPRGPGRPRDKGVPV

[2] = Solubility in aqueous solutions (crystallization sample preparation); format: physicochemical
Experimental: K2P2.1cryst ML335 and ML402 complex crystals grew in the same conditions as K2P2.1cyst, but the protein was incubated for at least 1 h with 2.5 mM of activator before setting the crystal plates. […] Then each compound was diluted 1:100 in SEC buffer to 5 mM concentration, giving a milky solution. This solution was mixed 1:1 to K2P2.1cryst previously concentrated to 12 mg ml^−1. […] The samples were briefly centrifuged in a table-top centrifuge (10,000 g) to remove any insoluble material before setting the crystal plates.

TREK-2 GC activity class (K2P10.1 (TREK-2)^CG*) | TREK-1 GC activity class [1] | TREK-2 activity class (TREK-2) | TREK-1 activity class (K2P2.1 (TREK-1)) | Structure (SMILES) | other results
+++ (>5 fold) | +++ (>5 fold) | + (1.5-2.5 fold) | + (1.5-2.5 fold) | CC1=CC(=O)N(c2ccc(C(=O)NCc3ccc(Cl)cc3Cl)cc2)C1=O [Entry 15] | –
+++ (>5 fold) | +++ (>5 fold) | + (1.5-2.5 fold) | + (1.5-2.5 fold) | O=C(NCc1ccc(Cl)cc1Cl)c1ccc(N2C(=O)C=CC2=O)cc1 [Entry 16] | –
+ (1.5-2.5 fold) | ++ (2.5-5 fold) | – | – | CC1=C(C)C(=O)N(c2ccc(C(=O)NCc3ccc(Cl)cc3Cl)cc2)C1=O [Entry 20] | –
– | – | – | – | C=CC(=O)Nc1ccc(C(=O)NCc2ccc(Cl)cc2Cl)cc1 [ML336] | Fold-activation (I activator/I control) (K2P2.1 (TREK-1) S131A): 16.1 (FIG. 1) fold; Reversibility of activation on washout (K2P2.1 (TREK-1); 20 μM, Xenopus oocytes): sustained following washout; Fold-activation (I activator/I control) (K2P2.1 (TREK-1); 20 μM, currents at 0 mV, Xenopus oocytes): 10+1.0 fold and 10.0 (FIG. 1) fold
– | – | – | – | Cc1cc(Cl)ccc1OCCNC(=O)c1cccs1 [ML402] | Sensitivity of channel to activator (K2P4.1 (TRAAK)): insensitive; Solubility in aqueous solutions [2]: insoluble in aqueous solutions
